Laboratory results: patent US9597407B2, “Targeted antimicrobial moieties” (C3 Jian, Inc., priority 2009, dated 2017)
“Also recorded” adds a separate entry of the source.

Legend:
[1] = tested on: microorganisms; experiment: Peptide activities: binding, antimicrobial, growth or phenotype altering (Table 8)
Excerpt: In certain embodiments, peptides described herein can have multiple activities. Thus for example, a peptide can have both binding/targeting activity and antimicrobial activity. Such peptides can be used, e.g., in a chimeric construct, for any or all of these properties. Thus, for example, a peptide designated “B” in Table 8 can be used as a targeting peptide. If it is also designated G or M it can also be used for antimicrobial activity.

[2] = tested on: bacteria; experiment: Binding of targeting peptides to microorganisms (Table 3); settings: preferably 1x PBS; for Target(s) (microorganisms bound by the targeting peptide) / Target(s) (microorganism bound by the targeting peptide): peptide binding in aqueous buffers that varied depending on peptide solubility
[3] = tested on: microorganisms; experiment: Morphology, biofilm and growth disruption by peptides (Table 5); type: cell-based; design: key: A: Peptide aggregates; B: Less hyphal formation; Clumps; Diffuse clumps and small polyps; F: Diffuse growth; H: Thin; I: Growth inhibition; Microcolony formation; Rippled; Small polyps; Thick; W: Halo formation on top, microlonies on bottom
Excerpt: In certain embodiments peptides that induce alterations in phenotype or other biological activities can also be used as antimicrobial effector moieties.

[4] = microorganism the targeting peptide binds, binding in aqueous buffers that varied with peptide solubility

Row | Substance | Activities [1] | Target(s) [2, 4] | Organism, effect ([3]; MRSA) | Target(s) (microorganisms bound by the targeting peptide) [2] | Organism, effect (morphology, biofilm and growth disruption) ([3]; S. pneumoniae) | also measured
1 | PF-051 (RFFNFEIKKSTKVDYVFAHVDLSDV; Peptide with targeting and/or antimicrobial activity) | G B | S. epidermidis and M. luteus and P. aeruginosa and C. albicans and MRSA and S. pneumoniae and E. faecalis | MRSA (D) | – | – | Organism, effect ([3]; M. luteus): M. luteus (C); Organism, effect ([3]; S. epidermidis): S. epidermidis (D); Organism, effect ([3]; S. mutans): S. mutans (D); Organism, effect ([3]; S. pneumoniae): S. pneumoniae (D)
2 | PF-037 (MTKKRRYDTTEFGLAHSMTAKITLHQALYK; Peptide with targeting and/or antimicrobial activity) | G B | S. epidermidis and M. luteus and P. aeruginosa and C. albicans and MRSA and S. pneumoniae and E. faecalis and C. jeikeium | MRSA (R) | – | – | Organism, effect ([3]; C. jeikeium): C. jeikeium (D); Organism, effect ([3]; M. luteus): M. luteus (C); Organism, effect ([3]; S. epidermidis): S. epidermidis (D)
3 | PF-560 (FGNPFRGFTLAMEADFKKRK; Peptide with targeting and/or antimicrobial activity) | G B | – | – | S. epidermidis; also recorded: M. luteus; also recorded: E. coli; also recorded: S. pneumoniae; also recorded: C. jeikeium; also recorded: C. jejuni | S. pneumoniae (R) | Organism, effect (morphology, biofilm and growth disruption) ([3]; B. subtilis): B. subtilis (D); Organism, effect (morphology, biofilm and growth disruption) ([3]; C. jejuni): C. jejuni (A); Organism, effect (morphology, biofilm and growth disruption) ([3]; MRSA): MRSA (C)
4 | PF-058 (FADQSQDNA; Peptide with targeting and/or antimicrobial activity) | G B | S. epidermidis and M. luteus and E. coli and C. albicans and MRSA and C. jeikeium and C. jejuni | MRSA (M) | – | – | –
5 | PF-021 (FSLNFSKQKYVTVN; Peptide with targeting and/or antimicrobial activity) | G B | S. epidermidis; also recorded: M. luteus; also recorded: P. mirabilis; also recorded: E. coli; also recorded: C. albicans; also recorded: E. faecalis; also recorded: C. jeikeium | MRSA (R) | – | – | Organism, effect ([3]; C. jeikeium): C. jeikeium (R); Organism, effect ([3]; M. luteus): M. luteus (A); Organism, effect ([3]; S. epidermidis): S. epidermidis (A)
6 | PF-517 (VKPTMTASLISTVC; Peptide with targeting and/or antimicrobial activity) | G B | – | – | C. jejuni | S. pneumoniae (M) | –
7 | PF-567 (QQRVKAVDASLSQVSTQVSGAVASA; Peptide with targeting and/or antimicrobial activity) | G B | – | – | S. epidermidis and P. aeruginosa and C. albicans and MRSA and S. pneumoniae and C. jeikeium | S. pneumoniae (D) | Organism, effect (morphology, biofilm and growth disruption) ([3]; C. jeikeium): C. jeikeium (C); Organism, effect (morphology, biofilm and growth disruption) ([3]; C. jejuni): C. jejuni (D); Organism, effect (morphology, biofilm and growth disruption) ([3]; M. luteus): M. luteus (C); Organism, effect (morphology, biofilm and growth disruption) ([3]; MRSA): MRSA (D)
8 | PF-052 (QELINEAVNLLVKSK; Peptide with targeting and/or antimicrobial activity) | G B | S. epidermidis and M. luteus and E. coli and MRSA and E. faecalis and C. jeikeium and C. jejuni | MRSA (R) | – | – | Organism, effect ([3]; C. jeikeium): C. jeikeium (D); Organism, effect ([3]; M. luteus): M. luteus (A); Organism, effect ([3]; S. epidermidis): S. epidermidis (S)
9 | PF-378 (ESAKSNLNFLMQEEWALFLLL; Peptide with targeting and/or antimicrobial activity) | G B | – | MRSA (M) | – | – | Target(s) ([2]; microorganism bound by the targeting peptide, binding in aqueous buffers chosen by peptide solubility): B. subtilis; also recorded: B. fragilis; also recorded: E. coli; also recorded: P. aeruginosa; also recorded: C. jeikeium; Organism, effect ([3]; S. epidermidis): S. epidermidis (M)
10 | PF-542 (KKDNPSLNDQDKNAVLNLLALAK; Peptide with targeting and/or antimicrobial activity) | G B | – | – | C. jeikeium | S. pneumoniae (H) | –
11 | PF-550 (STENGWQEFESYADVGVDPRRYVPL; Peptide with targeting and/or antimicrobial activity) | G B | – | – | S. pneumoniae | – | Organism, effect (morphology, biofilm and growth disruption) ([3]; B. subtilis): B. subtilis (D)
12 | PF-557 (AANKAREQAAAEAKRKAEEQAR; Peptide with targeting and/or antimicrobial activity) | G B | – | – | S. pneumoniae | – | Organism, effect (morphology, biofilm and growth disruption) ([3]; B. subtilis): B. subtilis (D)
13 | PF-459 (EKRMSFNENQSHRPLL; Peptide with targeting and/or antimicrobial activity) | G B | – | – | P. aeruginosa | S. pneumoniae (H) | –
14 | PF-762 (chain 1 PAPAPSAPAPAPEQPEQPA; chain 2 PAPAPSAPAPAPEQPEQPA; Peptide with targeting and/or antimicrobial activity) | G B | – | – | – | S. pneumoniae (H) | Target(s) (microorganism bound by the targeting peptide) [2]: M. luteus; also recorded: C. albicans
15 | PF-025 (LLIIFRLWLELKWKNKK; Peptide with targeting and/or antimicrobial activity) | G B | S. epidermidis and M. luteus and P. mirabilis and E. coli and P. aeruginosa and MRSA and E. faecalis and C. jejuni | MRSA (R) | – | – | Organism, effect ([3]; C. jeikeium): C. jeikeium (A); Organism, effect ([3]; M. luteus): M. luteus (A); Organism, effect ([3]; S. epidermidis): S. epidermidis (S)
16 | PF-622 (chain 1 TREDVFSVRLINNIVNKQA; chain 2 TREDVFSVRLINNIVNKQA; Peptide with targeting and/or antimicrobial activity) | G B | – | – | – | S. pneumoniae (M) | Target(s) (microorganism bound by the targeting peptide) [2]: S. epidermidis; also recorded: P. aeruginosa; also recorded: C. albicans; also recorded: S. pneumoniae; also recorded: E. faecalis; also recorded: C. jeikeium; Organism, effect (morphology, biofilm and growth disruption) ([3]; C. jeikeium): C. jeikeium (D); Organism, effect (morphology, biofilm and growth disruption) ([3]; E. faecalis): E. faecalis (D); Organism, effect (morphology, biofilm and growth disruption) ([3]; MRSA): MRSA (D); Organism, effect (morphology, biofilm and growth disruption) ([3]; S. epidermidis): S. epidermidis (D)
17 | PF-394 (VLKEECYQKN; Peptide with targeting and/or antimicrobial activity) | G B | – | MRSA (C) | S. epidermidis and MRSA and C. jejuni | – | Organism, effect ([3]; E. faecalis): E. faecalis (A)
18 | PF-566 (EAQQVTQQLGADFNAITTPTATKV; Peptide with targeting and/or antimicrobial activity) | G B | – | – | P. mirabilis; also recorded: S. pneumoniae | S. pneumoniae (D) | Organism, effect (morphology, biofilm and growth disruption) ([3]; B. subtilis): B. subtilis (C); Organism, effect (morphology, biofilm and growth disruption) ([3]; C. jeikeium): C. jeikeium (C); Organism, effect (morphology, biofilm and growth disruption) ([3]; C. jejuni): C. jejuni (D); Organism, effect (morphology, biofilm and growth disruption) ([3]; M. luteus): M. luteus (D); Organism, effect (morphology, biofilm and growth disruption) ([3]; MRSA): MRSA (M)
19 | PF-C058 (FETGFGDGYYMSLWGLNEKDEVCKVVIPFINPELID; Peptide with targeting and/or antimicrobial activity) | G B | – | – | – | – | Target(s) (microorganism bound by the targeting peptide) [2]: A. naeslundii; also recorded: F. nucleatum; also recorded: P. gingivalis; also recorded: S. mutans; Organism, effect (morphology, biofilm and growth disruption) ([3]; S. mutans): S. mutans (F)
20 | PF-738 (chain 1 KSGATSAASGAKSGASS; chain 2 KSGATSAASGAKSGASS; Peptide with targeting and/or antimicrobial activity) | G B | – | – | – | – | Target(s) (microorganism bound by the targeting peptide) [2]: S. epidermidis; also recorded: C. albicans; also recorded: C. jeikeium; Organism, effect (morphology, biofilm and growth disruption) ([3]; MRSA): MRSA (M)
21 | PF-569 (KSKISEYTEKEFLEFVEDIYTNNK; Peptide with targeting and/or antimicrobial activity) | G B | – | – | M. luteus; also recorded: P. mirabilis; also recorded: S. pneumoniae; also recorded: E. faecalis; also recorded: C. jeikeium | – | Organism, effect (morphology, biofilm and growth disruption) ([3]; B. subtilis): B. subtilis (D)
22 | PF-026 (SIHFIN; Peptide with targeting and/or antimicrobial activity) | G B | S. epidermidis and M. luteus and P. mirabilis and C. albicans and MRSA and E. faecalis and C. jeikeium | MRSA (M) | – | – | –
23 | PF-617 (chain 1 PMNAAEPE; chain 2 PMNAAEPE; Peptide with targeting and/or antimicrobial activity) | G B | – | – | – | S. pneumoniae (I) | Target(s) (microorganism bound by the targeting peptide) [2]: P. aeruginosa; also recorded: C. albicans; Organism, effect (morphology, biofilm and growth disruption) ([3]; C. albicans): C. albicans (H); Organism, effect (morphology, biofilm and growth disruption) ([3]; E. faecalis): E. faecalis (H)
